Results from article PMC11173533, “Baicalin and Baicalein Enhance Cytotoxicity, Proapoptotic Activity, and Genotoxicity of Doxorubicin and Docetaxel in MCF-7 Breast Cancer Cells” (Molecules, 2024).
Each block holds one compound with its values, some of them ahead of it.

Tests used:
Format in all cases: cell-based, human
HUVEC-ST cells [1] = assay: MTT cell viability assay on HUVEC-ST cells; conditions: for Inhibitory concentration IC10 (reduces cell viability by 10%) / IC50: HUVEC-ST cell line, 24 h incubation, MTT; for Concentrations that significantly decreased cell viability: HUVEC-ST, 24 h incubation with flavonoid, p < 0.05 vs control; for IC50: Homo sapiens, read-out: Inhibitory concentration IC50 (reduces cell viability by 50%)
Procedure: (§1) Unless otherwise indicated, in experiments, cells were seeded at an appropriate density for the specific assay into 96-well plates or Petri dishes. They were then incubated in standard culture conditions, which included a temperature of 37 °C, 100% relative humidity, and a 5% CO2 incubator. […] After treatment, the cells were washed with PBS and, depending on the experiment, immediately used for measurement or cultured in a fresh medium for 24 or 48 h. Control cells were treated with a corresponding volume of PBS. Additional controls for solvents were also performed.
(§2) The principle of the method is a measurement of the absorbance of formazan, a product of the reduction of the water-soluble tetrazolium salt (MTT) by NADPH-dependent cellular oxidoreductases (mainly succinate dehydrogenase) in living cells. Formazan is insoluble in water and precipitates as purple crystals. The amount of formazan is proportional to the number of living and metabolically active cells.
(§3) After treatment, the cells were washed with PBS and cultured in a fresh medium for 48 h. Subsequently, the medium was aspirated, and an aliquot of 50 µL of 0.05 mg/mL MTT solution was added to each microplate well for 3 h. The formazan crystals were dissolved in dimethyl sulfoxide (DMSO), and the absorbance was measured at a wavelength of λ = 580 nm. The percentage of viable cells was calculated by comparing the absorbance value of the test samples to the absorbance value of the control, taking the absorbance of the control as 100%.

MCF-7 cells [2] = assay: Mitochondrial membrane potential (JC-1) in MCF-7 cells
Procedure: as §1
(§4) The mitochondrial membrane potential was measured with the membrane-permeant JC-1 fluorescent probe. […] Thus, the measurement of the ratio of JC-1 dimer to monomer fluorescence can be used for estimating changes in mitochondrial membrane potential (ΔΨm).
(§5) The cells were then incubated in complete darkness for 30 min at 37 °C. After incubation, the cells were washed to remove the dye and suspended in fresh HBSS solution. Finally, the fluorescence intensity was measured using a Cary Eclipse spectrofluorometer (Varian, Inc.) at λex/em = 475 nm/530 nm for monomers and at λex/em = 535 nm/590 nm for dimers. Subsequently, the ratio of the fluorescence intensities at 530 nm/590 nm was calculated. The mitochondrial potential in both cell lines was measured immediately after incubation with investigated compounds. The results are expressed as a percentage of the control, considered 100%.

HUVEC-ST cells [3] = assay: Alkaline comet assay in HUVEC-ST cells; conditions: doxorubicin IC50 + flavonoid IC50 preincubation, longest postincubation time (48 h)
Procedure: as §1
The comet assay, also known as the single-cell gel electrophoresis assay, is a highly sensitive and versatile method for measuring single- and double-stranded DNA breaks. The assay uses an electric field to move negatively charged DNA fragments through an agarose gel. The amount of migration reflects the level of DNA damage in the cells.
The analysis was performed under alkaline conditions, according to the method of Singh et al., on cells immediately after the treatment and 24 or 48 h postincubation. A suspension of cells was mixed with low-melting-point agarose (LMP type XI) and spread onto a microscope glass slide previously coated with standard melting point agarose (NMP type I). After 2 h of cells lysis in a buffer containing (2.5 mol/L NaCl, 100 mmol/L Na2-EDTA, 10 mmol/L TRIS, 1% Triton X-100), DNA unwinding and electrophoresis were carried out in a buffer containing (1 mmol/L Na2-EDTA, 300 mmol/L NaOH) and (29 V, 30 mA). Before analysis, the slides were stained with DAPI solution (2 μg/mL). One hundred randomly chosen cells were analyzed on each slide using a fluorescence microscope Zeiss Axio Scope A1 (Carl Zeiss, Oberkochen, Germany) with a video camera connected to the image-analysis system Lucia-Comet v. 7.60 (Laboratory Imaging, Praha, Czech Republic).

MCF-7 cells [4] = assay: MTT cell viability assay on MCF-7 cells; conditions: for IC50: Homo sapiens, MCF7, read-out: Inhibitory concentration IC50 (reduces cell viability by 50%); for IC50 / Inhibitory concentration IC10 (reduces cell viability by 10%): MCF-7 cell line, 24 h incubation, MTT; for Concentrations giving statistically significant reduction in the number of living cells: MCF-7, 24 h incubation with flavonoid, p < 0.05 vs control; for Viable cells: MCF-7, doxorubicin 3 µmol/L after 22 h preincubation with flavonoid IC50
Procedure: as §1, §2, §3

HUVEC-ST cells [5] = assay: Annexin V FITC/propidium iodide double staining in HUVEC-ST cells
Procedure: as §1
This assay is based on the principle that, in viable cells, phosphatidylserine (PS) is located in the inner membrane (side facing the cytoplasm). However, upon induction of apoptosis, PS is translocated to the outer membrane (PS also appears on the necrotic cell surface). The exposed phosphatidylserine can be detected by protein Annexin V stained with FITC dye. The addition of propidium iodide (PI) enabled necrotic cells to be distinguished. Thus, this method is convenient for counting and differentiating live cells from those undergoing apoptosis or necrosis.
The analysis was performed according to the manufacturer’s protocol on cells immediately after the treatment and 24 or 48 h postincubation. Samples were analyzed using the flow cytometer LSR® II from Becton Dickinson (San Jose, CA, USA) using an argon laser with a wavelength of λ = 488 nm.

HUVEC-ST cells [6] = assay: Mitochondrial membrane potential (JC-1) in HUVEC-ST cells
Procedure: as §1, §4, §5

HUVEC-ST cells [7] = assay: Cytometric measurement of doxorubicin accumulation in HUVEC-ST cells; conditions: 22 h preincubation with flavonoid IC50, 1 h study period
Procedure: The aromatic rings in the hydrophobic part of doxorubicin give the drug molecule fluorescent properties (λex = 490 nm, λem = 590 nm). Thus, the flow cytometric measurement of drug fluorescence inside the cells allows for the monitoring of its transport rate through the cell membrane. The increase in the intensity of drug fluorescence inside the cells is highly correlated with its accumulation.
The DOX was added to the cell suspension to achieve a final concentration equal to the IC50 value. During one hour of incubation (temp 37 °C) with the drug, samples for cytometric measurement were taken from the cell suspension after the first 5 min and then after every 10 min. Samples were analyzed using the flow cytometer LSR® II from Becton Dickinson (San Jose, CA, USA) using an argon laser with a wavelength of λ = 488 nm. Doxorubicin fluorescence intensity was calculated per single cell.

MCF-7 cells [8] = assay: Flavonoid-drug combination index (MTT, CompuSyn) in MCF-7 cells
Procedure: The experiment with a non-constant combination of BLIN and BLEIN with DOX or DTX was carried out to determine the synergistic, additive, or antagonistic effect between investigated flavonoids and anticancer drugs. […] Subsequently, cell viability was determined by MTT assay. […] The results were presented as a combination index (CI).

[9] = doxorubicin IC50 after 22 h preincubation with flavonoid IC50
[10] = flavonoid IC50 alone 24 h, control = 100%
[11] = flavonoid alone (high concentration), 48 h after incubation
[12] = flavonoid IC10 22 h preincubation + DOX IC50 2 h
[13] = flavonoid IC10 22 h preincubation + DTX IC50 2 h
[14] = flavonoid IC50 22 h preincubation + DOX IC50 2 h
[15] = flavonoid IC50 22 h preincubation + DTX IC50 2 h

IC50 (MCF-7 cells [4]): 95 ± 4.8 µM
Compound: O=c1cc(-c2ccccc2)oc2cc(O)c(O)c(O)c12 [baicalein, 5,6,7-Trihydroxyflavone]
Inhibitory concentration IC10 (reduces cell viability by 10%) (HUVEC-ST cells [1]): 75 ± 1.8 µM | Concentrations that significantly decreased cell viability (HUVEC-ST cells [1]): ≥ 56 µmol/L | IC50 (HUVEC-ST cells [1]): 115 ± 2.6 µM | Mitochondrial membrane potential ΔΨm, % of control (MCF-7 cells [2]; docetaxel IC50 after 22 h preincubation with flavonoid IC50): 18% | Mitochondrial membrane potential ΔΨm, % of control (MCF-7 cells [2]; [9]): 20% | Mitochondrial membrane potential ΔΨm, % of control (MCF-7 cells [2]; [10]): 30% | DNA in the comet tail (HUVEC-ST cells [3]): 5% | Concentrations giving statistically significant reduction in the number of living cells (MCF-7 cells [4]): ≥ 10 µmol/L | Viable cells (MCF-7 cells [4]): 10% | Inhibitory concentration IC10 (reduces cell viability by 10%) (MCF-7 cells [4]): 9 ± 0.7 µM | AV+/PI+ cells (HUVEC-ST cells [5]; docetaxel IC50 + flavonoid IC50, 24 h after incubation): 44% | Change in percentage of AV+/PI− or AV+/PI+ cells vs doxorubicin alone (HUVEC-ST cells [5]; doxorubicin IC50 + flavonoid IC50, 24 h after incubation): increased almost two-fold | AV+/PI− cells (HUVEC-ST cells [5]; [11]): 10% | Mitochondrial membrane potential ΔΨm, % of control (HUVEC-ST cells [6]; [9]): 33% | Mitochondrial membrane potential ΔΨm (HUVEC-ST cells [6]; doxorubicin IC50 after preincubation with flavonoid in low concentration (IC10)): increasing ΔΨm to the level of control | Mitochondrial membrane potential ΔΨm, % of control (HUVEC-ST cells [6]; [10]): 59% | Enhancement of doxorubicin accumulation/influx (HUVEC-ST cells [7]): increased doxorubicin accumulation was maintained for the whole study period | Combination index (CI) (MCF-7 cells [8]; [12]): 1.073 | Combination index (CI) (MCF-7 cells [8]; [13]): 1.08 | Combination index (CI) (MCF-7 cells [8]; [14]): 0.3412 | Combination index (CI) (MCF-7 cells [8]; [15]): 0.6276

Compound: O=C(O)[C@H]1O[C@@H](Oc2cc3oc(-c4ccccc4)cc(=O)c3c(O)c2O)[C@H](O)[C@@H](O)[C@@H]1O [baicalin, baicalein 7-O-β-D-glucuronide]
Inhibitory concentration IC10 (reduces cell viability by 10%) (HUVEC-ST cells [1]): 101 ± 10.7 µM | Concentrations that significantly decreased cell viability (HUVEC-ST cells [1]): ≥ 112 µmol/L | IC50 (HUVEC-ST cells [1]): 167 ± 6.7 µM | Mitochondrial membrane potential ΔΨm, % of control (MCF-7 cells [2]; [9]): 31% | Mitochondrial membrane potential ΔΨm, % of control (MCF-7 cells [2]; [10]): 30% | DNA in the comet tail (HUVEC-ST cells [3]): 3% | IC50 (MCF-7 cells [4]): 250 ± 10.5 µM | Concentrations giving statistically significant reduction in the number of living cells (MCF-7 cells [4]): ≥ 56 µmol/L | Viable cells (MCF-7 cells [4]): 21% | Inhibitory concentration IC10 (reduces cell viability by 10%) (MCF-7 cells [4]): 36 ± 3.4 µM | Viable cells (HUVEC-ST cells [5]; doxorubicin IC50 + lower concentration (IC10) of flavonoid, longest postincubation time (48 h)): 55% | AV+/PI+ cells (HUVEC-ST cells [5]; [11]): 30% | AV+/PI− cells (HUVEC-ST cells [5]; [11]): 19% | Mitochondrial membrane potential ΔΨm, % of control (HUVEC-ST cells [6]; [10]): 72% | Enhancement of doxorubicin accumulation/influx (HUVEC-ST cells [7]): observed only during the first 30 min of the study | Combination index (CI) (MCF-7 cells [8]; [12]): 1.158 | Combination index (CI) (MCF-7 cells [8]; [13]): 0.9652 | Combination index (CI) (MCF-7 cells [8]; [14]): 0.6435 | Combination index (CI) (MCF-7 cells [8]; [15]): 0.5421
